Patent US11912682B2, “Isoindolinone compounds” (Monte Rosa Therapeutics, Inc., priority 2021, dated 2024)

Tests used:
GSPT1 [1] = target: T1, GSPT1 (Homo sapiens (Human), UniProt P15170+Q96SW2); assay: GSPT1 degradation in high N-Myc NSCLC cells (FIG. 2); assay type: cell-based; conditions: for DC50: six hours of treatment
Target sequence in this assay (P15170 whole entry, looked up): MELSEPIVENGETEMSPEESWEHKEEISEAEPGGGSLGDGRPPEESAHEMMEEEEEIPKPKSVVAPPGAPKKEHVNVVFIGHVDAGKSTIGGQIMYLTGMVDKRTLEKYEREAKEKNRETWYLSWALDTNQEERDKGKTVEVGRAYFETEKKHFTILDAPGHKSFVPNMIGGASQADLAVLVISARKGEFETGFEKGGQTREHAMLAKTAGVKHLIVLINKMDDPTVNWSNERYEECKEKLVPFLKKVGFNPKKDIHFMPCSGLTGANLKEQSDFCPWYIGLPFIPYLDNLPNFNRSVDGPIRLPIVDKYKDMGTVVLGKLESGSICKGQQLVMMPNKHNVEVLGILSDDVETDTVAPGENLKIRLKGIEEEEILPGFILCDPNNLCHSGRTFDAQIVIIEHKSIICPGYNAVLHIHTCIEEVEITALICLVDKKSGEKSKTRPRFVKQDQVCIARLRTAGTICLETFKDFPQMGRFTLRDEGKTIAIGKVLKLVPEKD
Target sequence in this assay (Q96SW2 whole entry, looked up): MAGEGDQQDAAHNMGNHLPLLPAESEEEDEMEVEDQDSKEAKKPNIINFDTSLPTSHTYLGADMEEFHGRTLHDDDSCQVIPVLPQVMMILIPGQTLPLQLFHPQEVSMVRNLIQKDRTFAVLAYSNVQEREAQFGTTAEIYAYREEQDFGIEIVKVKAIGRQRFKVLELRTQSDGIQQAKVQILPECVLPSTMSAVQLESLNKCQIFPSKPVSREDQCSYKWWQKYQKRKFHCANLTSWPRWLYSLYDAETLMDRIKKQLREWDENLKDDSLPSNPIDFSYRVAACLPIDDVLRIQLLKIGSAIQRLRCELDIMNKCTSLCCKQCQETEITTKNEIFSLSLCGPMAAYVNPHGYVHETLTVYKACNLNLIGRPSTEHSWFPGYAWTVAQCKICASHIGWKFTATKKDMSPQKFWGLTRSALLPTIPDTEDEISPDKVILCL
Target sequence in this assay (Q16531 whole entry partner, looked up): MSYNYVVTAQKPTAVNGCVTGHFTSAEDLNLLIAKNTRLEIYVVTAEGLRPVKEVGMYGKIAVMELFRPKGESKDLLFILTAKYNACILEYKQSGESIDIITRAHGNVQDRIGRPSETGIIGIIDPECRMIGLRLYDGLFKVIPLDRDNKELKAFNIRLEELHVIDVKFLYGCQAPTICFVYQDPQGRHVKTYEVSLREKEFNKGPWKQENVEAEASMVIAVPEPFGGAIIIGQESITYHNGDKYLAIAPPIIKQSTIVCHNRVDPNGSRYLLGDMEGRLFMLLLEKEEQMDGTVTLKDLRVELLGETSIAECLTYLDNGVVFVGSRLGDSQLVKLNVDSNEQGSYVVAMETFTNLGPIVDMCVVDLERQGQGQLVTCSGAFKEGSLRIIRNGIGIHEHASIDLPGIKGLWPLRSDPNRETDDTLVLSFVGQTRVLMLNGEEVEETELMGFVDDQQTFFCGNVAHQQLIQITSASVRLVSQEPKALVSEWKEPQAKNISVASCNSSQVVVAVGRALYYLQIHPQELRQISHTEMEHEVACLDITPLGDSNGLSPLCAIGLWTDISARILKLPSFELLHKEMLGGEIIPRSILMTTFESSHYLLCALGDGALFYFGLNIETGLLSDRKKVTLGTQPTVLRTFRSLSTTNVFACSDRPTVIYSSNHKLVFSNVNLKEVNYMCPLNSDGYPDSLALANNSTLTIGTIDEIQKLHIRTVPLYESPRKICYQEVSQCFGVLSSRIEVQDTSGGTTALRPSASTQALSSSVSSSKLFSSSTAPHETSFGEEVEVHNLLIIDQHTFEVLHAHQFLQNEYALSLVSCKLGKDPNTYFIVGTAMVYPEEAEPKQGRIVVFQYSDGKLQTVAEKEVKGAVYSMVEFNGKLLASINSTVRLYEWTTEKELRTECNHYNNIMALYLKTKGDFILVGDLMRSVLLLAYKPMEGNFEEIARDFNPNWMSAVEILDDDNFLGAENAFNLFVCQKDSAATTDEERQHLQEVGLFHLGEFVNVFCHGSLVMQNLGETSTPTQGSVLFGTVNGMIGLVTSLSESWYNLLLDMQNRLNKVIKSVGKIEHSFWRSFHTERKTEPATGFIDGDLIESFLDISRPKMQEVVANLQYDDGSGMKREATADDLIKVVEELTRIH

[2] = tested on: NCI-H1155, ABC-1 and EBC-1, NCI-H2023; assay: viability assay (CellTiter-Glo) in N-Myc high and N-Myc low NSCLC cell lines; assay type: cell-based; conditions: 72 hours
Description: The anti-proliferative activity of compound 10 was tested on representative N-Myc high and N-Myc low cell lines (NCI-H1155, ABC-1 and EBC-1, NCI-H2023, respectively) following treatment with compound for 72 hours. Cells were sub-cultures as recommended by the providers (ATCC, DSMZ) and incubated at 37° C., 5% CO2. All cells were authenticated and confirmed by Short Tandem Repeat (STR) profiling. Briefly, cells were seeded to the appropriate density to allow logarithmic growth over the assay period in 96-well opaque-walled clear bottom plates (from Corning, Cat. No. 3903, Lot. No. 16419061; 100 μL total volume) and incubated overnight. […] Cell viability was assessed using the CellTiter-Glo assay kit as recommended by the Manufacturer (Promega, Cat. No. G7558, Lot. No. 0000385738) and measurements performed on the EnSpire multimode plate reader (Perkin Elmer). EC50 values were determined using Prism8 (GraphPad) and the asymmetric (five-parameter) equation and least squares fit. GSPT1 levels were assessed in the NCI-H1155 and ABC-1 cell lines by densitometry analysis following treatment with compound 10 for 6 hours and western blotting analysis. […] For chemiluminescence and colorimetric signals “optimal automatic exposure” settings (3×3 binning) were employed while fluorescence was detected using 1-4 seconds exposure time to achieve best GAPDH signals and avoid overexposure. […]

SALL4 = SALL4 (Homo sapiens (Human), UniProt Q9UJQ4); assay: substrate degradation in cells (FIG. 1A), SALL4; assay type: cell-based; conditions: highest concentration tested of 30 μM
IKZF3 = IKZF3 (Homo sapiens (Human), UniProt Q9UKT9); assay: IKZF3 degradation in cells treated with compound (FIG. 1A); assay type: cell-based; conditions: concentrations up to 30 µM
Chain of IKZF3 (Q9UKT9 whole entry, looked up): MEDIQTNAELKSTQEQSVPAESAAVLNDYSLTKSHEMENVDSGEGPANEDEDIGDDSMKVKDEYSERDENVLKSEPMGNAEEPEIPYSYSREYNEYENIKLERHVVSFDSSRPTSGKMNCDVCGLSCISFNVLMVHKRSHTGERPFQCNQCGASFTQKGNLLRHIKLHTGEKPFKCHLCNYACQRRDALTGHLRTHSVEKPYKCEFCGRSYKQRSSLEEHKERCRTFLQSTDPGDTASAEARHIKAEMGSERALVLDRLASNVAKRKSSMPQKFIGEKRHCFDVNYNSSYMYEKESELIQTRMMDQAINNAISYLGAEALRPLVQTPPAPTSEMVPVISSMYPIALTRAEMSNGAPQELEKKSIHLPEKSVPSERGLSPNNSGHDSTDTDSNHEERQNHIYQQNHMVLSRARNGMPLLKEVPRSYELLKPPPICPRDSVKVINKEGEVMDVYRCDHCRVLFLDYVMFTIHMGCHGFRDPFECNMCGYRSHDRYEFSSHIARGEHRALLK

GSPT1 [3] = target: T1, GSPT1; assay: Mass spectrometry-based proteomics analysis of a treated cancer cell line (FIG. 1B); conditions: cancer cell line treated with compound; fold-change (log2) vs p-value
Target sequence in this assay (P15170 whole entry, looked up): as the sequence (P15170 whole entry, looked up) above
Target sequence in this assay (Q96SW2 whole entry, looked up): as the sequence (Q96SW2 whole entry, looked up) above
Target sequence in this assay (Q16531 whole entry partner, looked up): as the sequence (Q16531 whole entry partner, looked up) above

IKZF1 = IKZF1 (Homo sapiens (Human), UniProt Q13422); assay: IKZF1 degradation in cells treated with compound (FIG. 1A); assay type: cell-based; conditions: concentrations up to 30 µM
Chain of IKZF1 (Q13422 whole entry, looked up): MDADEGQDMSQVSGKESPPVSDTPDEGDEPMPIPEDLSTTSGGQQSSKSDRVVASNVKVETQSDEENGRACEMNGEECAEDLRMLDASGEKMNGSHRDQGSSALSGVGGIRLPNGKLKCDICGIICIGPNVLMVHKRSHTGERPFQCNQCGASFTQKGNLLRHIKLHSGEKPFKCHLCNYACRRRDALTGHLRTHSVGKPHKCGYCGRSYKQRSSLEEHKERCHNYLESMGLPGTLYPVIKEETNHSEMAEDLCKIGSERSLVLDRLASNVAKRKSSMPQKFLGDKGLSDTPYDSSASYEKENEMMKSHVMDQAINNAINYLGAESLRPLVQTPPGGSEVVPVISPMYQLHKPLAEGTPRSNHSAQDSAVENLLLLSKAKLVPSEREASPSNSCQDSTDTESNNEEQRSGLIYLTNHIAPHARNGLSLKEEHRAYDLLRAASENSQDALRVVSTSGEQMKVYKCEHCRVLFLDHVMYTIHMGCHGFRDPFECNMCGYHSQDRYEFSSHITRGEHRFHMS

[4] = tested on: human cell line NCI-H1155; assay: N-Myc-driven mouse xenograft model, NCI-H1155 (FIG. 3A); assay type: in vivo; conditions: for tumor size (tumor volume): study to day 21
GSPT1 [5] = target: GSPT1 (Homo sapiens (Human), UniProt P15170); assay: GSPT1 levels in NCI-H1155 tumors by western blotting; assay type: in vivo, female BALB/c nude mice; conditions: 6 hours after the third dose, all three dose levels
Chain of GSPT1 (Homo sapiens (Human), UniProt P15170) (P15170 whole entry): as the sequence (P15170 whole entry, looked up) above
Chain of GSPT1 (Homo sapiens (Human), UniProt P15170) (Q96SW2 whole entry, further chain): as the sequence (Q96SW2 whole entry, looked up) above
Chain of GSPT1 (Homo sapiens (Human), UniProt P15170) (Q16531 2-1140 partner): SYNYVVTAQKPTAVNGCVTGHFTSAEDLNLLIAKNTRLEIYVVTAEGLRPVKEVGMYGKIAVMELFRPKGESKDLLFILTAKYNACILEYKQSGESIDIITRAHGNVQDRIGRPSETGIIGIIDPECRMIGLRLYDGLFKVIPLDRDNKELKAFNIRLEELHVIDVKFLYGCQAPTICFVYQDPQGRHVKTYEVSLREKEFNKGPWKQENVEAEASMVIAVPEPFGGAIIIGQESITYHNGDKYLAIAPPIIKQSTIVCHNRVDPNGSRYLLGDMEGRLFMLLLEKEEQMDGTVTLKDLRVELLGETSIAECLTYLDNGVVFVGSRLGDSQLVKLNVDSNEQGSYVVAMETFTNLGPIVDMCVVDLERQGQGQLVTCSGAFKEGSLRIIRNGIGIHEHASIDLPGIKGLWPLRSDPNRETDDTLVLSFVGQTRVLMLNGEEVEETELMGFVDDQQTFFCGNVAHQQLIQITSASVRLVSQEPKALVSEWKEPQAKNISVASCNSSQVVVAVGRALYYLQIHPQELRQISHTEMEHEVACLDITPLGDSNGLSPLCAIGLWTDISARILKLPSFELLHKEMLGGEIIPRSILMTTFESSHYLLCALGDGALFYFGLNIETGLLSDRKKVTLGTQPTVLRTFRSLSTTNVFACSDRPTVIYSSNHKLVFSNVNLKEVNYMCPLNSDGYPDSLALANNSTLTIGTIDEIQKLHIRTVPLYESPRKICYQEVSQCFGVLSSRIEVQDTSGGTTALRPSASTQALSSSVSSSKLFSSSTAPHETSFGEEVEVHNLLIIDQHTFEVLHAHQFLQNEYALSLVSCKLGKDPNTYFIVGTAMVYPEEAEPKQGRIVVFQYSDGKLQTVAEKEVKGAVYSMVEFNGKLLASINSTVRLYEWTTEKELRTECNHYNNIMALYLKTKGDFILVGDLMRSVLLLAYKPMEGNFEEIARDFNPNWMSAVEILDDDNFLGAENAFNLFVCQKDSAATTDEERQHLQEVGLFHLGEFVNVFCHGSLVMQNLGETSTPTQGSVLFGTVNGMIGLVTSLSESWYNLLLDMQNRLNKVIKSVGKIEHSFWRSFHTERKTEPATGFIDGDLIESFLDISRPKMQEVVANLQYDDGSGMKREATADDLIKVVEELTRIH
Description: GSPT1 levels in tumors were determined by western blotting 6 hours after the third dose. Western blotting was performed as described previously using GAPDH as loading control.

NCI-H1155 = assay: Viability of NSCLC cell line, high N-Myc (FIG. 2A); assay type: cell-based, human; conditions: compared to low N-Myc lines EBC-1, NCI-H2023
[6] = tested on: NCI-H1155 cells (human non small cell lung cancer); assay: NCI-H1155 xenograft study; assay type: in vivo, female BALB/c nude mice
Description: For the NCI-H1155 xenograft study, cells (human non small cell lung cancer, ATCC CRL-5818) were maintained in vitro as suspension culture in ATCC-formulated DMEM:F12 Medium supplemented as recommended by the provider and kept at 37° C. in an atmosphere of 5% CO2 in air. Cells (0.5 millions) were resuspended in 0.2 mL of PBS with Matrigel (50:50) and inoculated into female BALB/c nude mice, 6-8 weeks old, and allowed to grow to 150 mm^3 in size. Mice were dosed orally with either vehicle or compound 10 at 1 or 3 mg per kilogram daily (filled squares and filled triangles, respectively) or 6 mg per kilogram for 5 continous days followed by 9 days treatment holidays (5 On-9 off) (filled inverted triangles). Compound formulations were prepared fresh daily in 5%vDMSO/95%(30% w/v HP-β-CD in water). Gemcitabine dosed at 40 mg per kilogram, IP, Q4D×5 was used as a positive control (filled rhombi). For this study, mice were dosed for 21 days with tumor volumes measured every 3 days.

ABC-1 = assay: Viability of NSCLC cell line, high N-Myc (FIG. 2A); assay type: cell-based; conditions: ABC-1, high N-Myc; compared to low N-Myc lines EBC-1, NCI-H2023
GSPT1 [7] = target: T1, GSPT1; assay: GSPT1 levels by western blotting and densitometry in NCI-H1155 and ABC-1 cell lines; assay type: cell-based; conditions: for DC50: six hours
Description: The anti-proliferative activity of compound 10 was tested on representative N-Myc high and N-Myc low cell lines (NCI-H1155, ABC-1 and EBC-1, NCI-H2023, respectively) following treatment with compound for 72 hours. Cells were sub-cultures as recommended by the providers (ATCC, DSMZ) and incubated at 37° C., 5% CO2. All cells were authenticated and confirmed by Short Tandem Repeat (STR) profiling. Briefly, cells were seeded to the appropriate density to allow logarithmic growth over the assay period in 96-well opaque-walled clear bottom plates (from Corning, Cat. No. 3903, Lot. No. 16419061; 100 μL total volume) and incubated overnight. Compound 10 and DMSO control were subsequently dispensed to the plates using HPD300 and a 9 data-point titration curve with concentrations ranging from 30 μM to 0.1 nM. Dilutions were prepared fresh prior to the assay using a 10 mM DMSO stock. Final DMSO concentration was 0.5%. The plates were incubated for 3 days at 5% CO2, 37° C. Cell viability was assessed using the CellTiter-Glo assay kit as recommended by the Manufacturer (Promega, Cat. No. G7558, Lot. No. 0000385738) and measurements performed on the EnSpire multimode plate reader (Perkin Elmer). EC50 values were determined using Prism8 (GraphPad) and the asymmetric (five-parameter) equation and least squares fit. GSPT1 levels were assessed in the NCI-H1155 and ABC-1 cell lines by densitometry analysis following treatment with compound 10 for 6 hours and western blotting analysis. […] Membranes were then transferred between two clean sheets of plastic and chemiluminescence (GSPT1), Dylight680 fluorescence (GAPDH) as well as colorimetric (molecular weight standard) signals were detected using a Chemidoc MP imaging system (BioRad 17001402). For chemiluminescence and colorimetric signals “optimal automatic exposure” settings (3×3 binning) were employed while fluorescence was detected using 1-4 seconds exposure time to achieve best GAPDH signals and avoid overexposure. […]
Target sequence in this assay (P15170 whole entry): as the sequence (P15170 whole entry, looked up) above
Target sequence in this assay (Q96SW2 whole entry): as the sequence (Q96SW2 whole entry, looked up) above
Target sequence in this assay (Q16531 2-1140 partner): as the sequence (Q16531 2-1140 partner) above

**Q.** With `Cc1ccc(NC(=O)OCc2ccc3c(c2)C(=O)N(C2CCC(=O)NC2=O)C3)cc1Cl` (stereo not shown) [Compound 10] as the compound, how does the DC50 (GSPT1 [1]; ABC-1 cells) read?
**A.** 22 nM

**Q.** And the “relative levels of GSPT1 vs concentration” value (GSPT1 [1]; FIG. 2B)?
**A.** concentration dependent manner

**Q.** And the DC50 (GSPT1 [1]; NCI-H1155 cells)?
**A.** 3 nM

**Q.** What about the “extent of GSPT1 degradation” value (GSPT1 [1]; both cell lines, NCI-H1155 and ABC-1) of the same compound?
**A.** complete degradation

**Q.** And the “anti-proliferative sensitivity (FIG. 2A)” value [2]?
**A.** sensitivity correlated with the expression of N-Myc

**Q.** And the “SALL4 degradation (FIG. 1A)” value (SALL4)?
**A.** none of the known the substrates IKZF1, IKZF3, SALL4, CK1alpha was degraded

**Q.** What about the “degradation of IKZF3” value (IKZF3) of the same compound?
**A.** no induction of degradation

**Q.** And the “GSPT1 protein change in proteomics analysis” value (GSPT1 [3])?
**A.** most statistically significant downregulated protein

**Q.** What about the “degradation of IKZF1” value (IKZF1) of the same compound?
**A.** no induction of degradation

**Q.** What about the “tumor growth (tumor volume)” value ([4]; 1 mg/kg PO once daily) of the same compound?
**A.** tumor growth was suppressed for two weeks

**Q.** What about the “tumor size (tumor volume)” value ([4]; 3 mg/kg PO once daily) of the same compound?
**A.** tumor size decreased, became undetectable by day eight and remained so until the end of the study at day 21

**Q.** What about the “tumor size (tumor volume)” value ([4]; 6 mg/kg PO five days on and nine days off) of the same compound?
**A.** tumor size decreased, became undetectable by day eight and remained so until the end of the study at day 21

**Q.** And the body weight ([4]; oral administration)?
**A.** no body weight loss

**Q.** And the “effect on tumor growth (tumor volume)” value ([4]; oral administration)?
**A.** tumor growth inhibition

**Q.** What about the “GSPT1 levels in tumors (FIG. 3B)” value (GSPT1 [5]) of the same compound?
**A.** Complete degradation of GSPT1

**Q.** What about the “sensitivity to treatment (viability in %)” value (NCI-H1155) of the same compound?
**A.** highly sensitive

**Q.** What about the “tumor growth (FIG. 3A)” value ([6]; 1 mg/kg once daily, oral) of the same compound?
**A.** tumor growth was suppressed for two weeks

**Q.** What about the “tumor size (FIG. 3A)” value ([6]; 3 mg/kg once daily, oral) of the same compound?
**A.** tumor size decreased, became undetectable by day eight and remained so until the end of the study at day 21

**Q.** What about the “tumor size (FIG. 3A)” value ([6]; 6 mg/kg five days on and nine days off, oral) of the same compound?
**A.** tumor size decreased, became undetectable by day eight and remained so until the end of the study at day 21

**Q.** What about the body weight ([6]; oral administration) of the same compound?
**A.** no body weight loss observed

**Q.** And the “tumor growth (FIG. 3A)” value ([6]; oral administration)?
**A.** tumor growth inhibition

**Q.** What about the “sensitivity to treatment (viability in %)” value (ABC-1) of the same compound?
**A.** highly sensitive

**Q.** And the DC50 (GSPT1 [7]; ABC-1 cells)?
**A.** 22 nM

**Q.** And the DC50 (GSPT1 [7]; NCI-H1155 cells)?
**A.** 3 nM

**Q.** What about the GSPT1 degradation (GSPT1 [7]; high N-Myc NCI-H1155 and ABC-1 cells, six hours of treatment) of the same compound?
**A.** Complete degradation of GSPT1
